Values joined by “and” are separate entries in the source; they are usually repeats but may differ in a detail not shown here. Equal values may be shown once. Non-standard residues stand in square brackets, D forms with d. Residues, ends and D or L forms follow the SMILES beside them. *: point of attachment. Desaminotyrosyl = O=C(CCc1ccc(O)cc1)*; NMeY = CN[C@@H](Cc1ccc(O)cc1)C(=O)O; Agmatine = N=C(N)NCCCCN*; Nle = CCCC[C@H](N)C(=O)O; Orn = NCCC[C@H](N)C(=O)O; Abu = CC[C@H](N)C(=O)O
Experiments:
GHRH receptor [1] = target: T1, GHRH receptor (Homo sapiens, UniProt Q02643); experiment: GHRH receptor binding, competition with 125I-labeled JV-1-42, human pituitary membrane homogenates (Table 7); set-up: Normal human pituitaries were purchased from the National Hormone and Peptide Program; tissue National Hormone and Peptide Program (A.F. Parlow, Harbor-UCLA Medical Center, Torrance, Calif.); host or cells: normal human pituitary, membrane fraction; conditions: for Relative affinity (Binding potency) vs JI-38: JI-38 = 1, Table 7
T1 sequence (Q02643 23-423): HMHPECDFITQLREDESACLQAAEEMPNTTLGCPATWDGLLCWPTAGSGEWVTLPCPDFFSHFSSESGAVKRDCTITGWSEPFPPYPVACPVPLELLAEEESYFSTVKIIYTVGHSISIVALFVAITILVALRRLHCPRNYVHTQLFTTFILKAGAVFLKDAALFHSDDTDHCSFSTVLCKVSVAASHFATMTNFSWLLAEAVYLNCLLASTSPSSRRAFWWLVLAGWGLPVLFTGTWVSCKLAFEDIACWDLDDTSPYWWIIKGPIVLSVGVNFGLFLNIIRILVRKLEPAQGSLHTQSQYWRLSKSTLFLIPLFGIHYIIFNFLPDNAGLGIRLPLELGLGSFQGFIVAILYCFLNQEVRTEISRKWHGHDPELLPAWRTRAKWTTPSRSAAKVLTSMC
Description: Normal human pituitaries were purchased from the National Hormone and Peptide Program (A.F. Parlow, Los Angeles, County Harbor-UCLA Medical Center, Torrance, Calif.).

GHRH receptor [2] = target: T1, GHRH receptor; experiment: Receptor binding in vitro, 125I-labeled [His1,Nle27]-hGHRH(1-32)NH2, membrane receptors of human anterior pituitary cells (Table 14); conditions: for Relative affinity (Binding potency) compared to JI-38: JI-38 = 1; for Relative affinity (Binding potency) compared to hGHRH(1-29): hGHRH(1-29)NH2 = 1; for GHRH receptor binding affinity (in words): compared to JI-38
Description: Normal human pituitary was purchased from the National Hormone and Peptide Program (UCLA Medical Center, Torrance, Calif.).

GH release = experiment: In vivo endocrine activity, GH release after subcutaneous administration (Table 9); conditions: rat; for GH releasing potency relative to JI-38 (=1): subcutaneous (s.c.) injection
Protocol: Subcutaneous Administration. Adult male rats were used and anesthetized with pentobarbital (6 mg/100 g, b.w.), by i.p. injection. […] Blood samples were taken from the jugular vein 5, 15 and/or 30 minutes after the injection. The blood samples were centrifuged, plasma was removed and the GH level was measured byELISA. The results are summarized in terms of potency in Table 9.

[3] = test system: myocardial infarction (Fisher-344 rats); experiment: Serial echocardiography after MI, compared to JI-38 (Example 15, Table 15); type: in vivo, rat; set-up: key to LVEDD: Left Ventricular End Diastolic Diameter / LVESD: Left Ventricular End Systolic Diameter / VD: Ventricular Diastole / VS: Ventricular Systole / EF: Ejection Fraction / FS: Fraction Shortening: ↓: downward arrow denotes lower than JI-38; ↑: upward arrow denotes greater than JI-38; =denotes same as JI-38; ⬇⬇: double arrow denotes greater effect; ⬆⬆: double arrow denotes greater effect; conditions: for EF: Ejection Fraction / FS: Fraction Shortening / LVEDD: Left Ventricular End Diastolic Diameter / LVESD: Left Ventricular End Systolic Diameter / VD: Ventricular Diastole / VS: Ventricular Systole: in comparison to JI-38
Summary of the method: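 Female 6-month-old Fisher-344 rats with permanent left coronary artery ligation received placebo, JI-38 or GHRH agonists subcutaneously twice daily from 2 h post-surgery (10 per group). Under 2% isoflurane, M-mode LVEDD, LVESD and FS plus long-axis EF were measured at baseline, 2 days, 1, 2 and 4 weeks.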

Compound | IC50 (GHRH receptor [1]; 125I-JV-1-42, human pituitary membranes, Table 7) [nM] | Relative affinity (Binding potency) vs JI-38 (GHRH receptor [1]) | Relative affinity (Binding potency) compared to JI-38 (GHRH receptor [2]) | Relative affinity (Binding potency) compared to hGHRH(1-29) (GHRH receptor [2]) | Stimulation of growth hormone levels after subcutaneous administration (in words) (GH release; s.c.) | GH releasing potency relative to JI-38 (=1) (GH release; 15 min after) | GH releasing potency relative to JI-38 (=1) (GH release; 30 min after) | cardiac dimensions (LVEDD and LVESD) ([3]; after MI) | cardiac performance (EF and FS) ([3]; after MI) | EF: Ejection Fraction [3] | FS: Fraction Shortening [3] | LVEDD: Left Ventricular End Diastolic Diameter [3] | LVESD: Left Ventricular End Systolic Diameter [3] | VD: Ventricular Diastole [3] | VS: Ventricular Systole [3] | Relative affinity (Binding potency) compared to JI-38 (GHRH receptor [2]; listed as MR-356) | GHRH receptor binding affinity (in words) (GHRH receptor [2])
CCCC[C@H](NC(=O)[C@@H](NC(=O)[C@H](CC(=O)O)NC(=O)[C@H](CCC(N)=O)NC(=O)[C@H](CC(C)C)NC(=O)[C@H](CC(C)C)NC(=O)[C@H](CCCN)NC(=O)[C@H](CCCNC(=N)N)NC(=O)[C@H](C)NC(=O)[C@H](CO)NC(=O)[C@H](CC(C)C)NC(=O)[C@H](CCC(N)=O)NC(=O)[C@H](CC)NC(=O)[C@H](CC(C)C)NC(=O)[C@@H](NC(=O)[C@H](CCCN)NC(=O)[C@H](CCCNC(=N)N)NC(=O)[C@H](Cc1ccc(O)cc1)NC(=O)[C@H](CO)NC(=O)[C@H](CCC(N)=O)NC(=O)[C@@H](NC(=O)[C@H](Cc1ccccc1)NC(=O)[C@@H](NC(=O)[C@H](C)NC(=O)[C@H](CC(=O)O)NC(=O)[C@H](C)NC(=O)CCc1ccc(O)cc1)[C@@H](C)CC)[C@@H](C)O)C(C)C)[C@@H](C)CC)C(=O)N[C@@H](CC(=O)O)C(=O)NCCCCNC(=N)N [JI-38, [Dat^1, Gln^8, Orn^12,21, Abu^15, Nle^27, Asp^28, Agm^29]hGHRH(1-29)NH2, reference compound] (Desaminotyrosyl-ADAIFTQSYR[Orn]VL[Abu]QLSAR[Orn]LLQDI[Nle]D-Agmatine) | 4.35 | 1 | 1.00 | 2.79 | – | – | – | – | – | – | – | – | – | – | – | – | –
CCCC[C@H](NC(=O)[C@@H](NC(=O)[C@H](CC(=O)O)NC(=O)[C@H](CCC(N)=O)NC(=O)[C@H](CC(C)C)NC(=O)[C@H](CC(C)C)NC(=O)[C@H](CCCN)NC(=O)[C@H](CCCNC(=N)N)NC(=O)[C@H](C)NC(=O)[C@H](CO)NC(=O)[C@H](CC(C)C)NC(=O)[C@H](CCC(N)=O)NC(=O)[C@H](CC)NC(=O)[C@H](CC(C)C)NC(=O)[C@@H](NC(=O)[C@H](CCCN)NC(=O)[C@H](CCCNC(=N)N)NC(=O)[C@H](Cc1ccc(O)cc1)NC(=O)[C@H](CO)NC(=O)[C@H](CCC(N)=O)NC(=O)[C@@H](NC(=O)[C@H](Cc1ccccc1)NC(=O)[C@@H](NC(=O)[C@H](C)NC(=O)[C@H](CC(=O)O)NC(=O)[C@H](C)NC(=O)[C@H](Cc1ccc(O)cc1)NC)[C@@H](C)CC)[C@@H](C)O)C(C)C)[C@@H](C)CC)C(=O)N[C@@H](CC(=O)O)C(=O)NCCCCNC(=N)N [Peptide P-20356, [N—Me-Tyr^1, Gln^8, Orn^12, Abu^15, Orn^21, Nle^27, Asp^28, Agm^29]hGHRH(1-29) NH2] (H-[NMeY]ADAIFTQSYR[Orn]VL[Abu]QLSAR[Orn]LLQDI[Nle]D-Agmatine) | – | 16.11 | – | 7.50 | stimulated greater growth hormone levels than hGHRH or JI-38 | 1.72 | 1.09 | reduced cardiac dimensions | substantial improvement on cardiac performance | = | ⬆⬆ | ⬇⬇ | ⬇⬇ | = | = | 2.7 and 2.69 | improved receptor binding affinity
CCCC[C@H](NC(=O)[C@@H](NC(=O)[C@H](CC(=O)O)NC(=O)[C@H](CCC(N)=O)NC(=O)[C@H](CC(C)C)NC(=O)[C@H](CC(C)C)NC(=O)[C@H](CCCN)NC(=O)[C@H](CCCNC(=N)N)NC(=O)[C@H](C)NC(=O)[C@H](CO)NC(=O)[C@H](CC(C)C)NC(=O)[C@H](CCC(N)=O)NC(=O)[C@H](CC)NC(=O)[C@H](CC(C)C)NC(=O)[C@@H](NC(=O)[C@H](CCCN)NC(=O)[C@H](CCCNC(=N)N)NC(=O)[C@H](Cc1ccc(O)cc1)NC(=O)[C@H](CO)NC(=O)[C@H](CCC(N)=O)NC(=O)[C@@H](NC(=O)[C@H](Cc1ccccc1)NC(=O)[C@@H](NC(=O)[C@H](C)NC(=O)[C@H](CC(=O)O)NC(=O)[C@@H](C)NC(=O)[C@H](Cc1ccc(O)cc1)NC)[C@@H](C)CC)[C@@H](C)O)C(C)C)[C@@H](C)CC)C(=O)N[C@@H](CC(=O)O)C(=O)NCCCCNC(=N)N [Peptide P-20361, [N—Me-Tyr^1, D-Ala^2, Gln^8, Orn^12, Abu^15, Orn^21, Nle^27, Asp^28, Agm^29] hGHRH (1-29)NH2] (H-[NMeY][dA]DAIFTQSYR[Orn]VL[Abu]QLSAR[Orn]LLQDI[Nle]D-Agmatine) | – | 5.30 | 2.30 | 6.42 | – | 1.18 | 1.50 | – | – | ↓ | = | = | = | = | ↑ | – | improved receptor binding affinity
CCCC[C@H](NC(=O)[C@@H](NC(=O)[C@H](CC(=O)O)NC(=O)[C@H](CCC(N)=O)NC(=O)[C@H](CC(C)C)NC(=O)[C@H](CC(C)C)NC(=O)[C@H](CCCN)NC(=O)[C@H](CCCNC(=N)N)NC(=O)[C@H](C)NC(=O)[C@H](CO)NC(=O)[C@H](CC(C)C)NC(=O)[C@H](CCC(N)=O)NC(=O)[C@H](CC)NC(=O)[C@H](CC(C)C)NC(=O)[C@@H](NC(=O)[C@H](CCCN)NC(=O)[C@H](CCCNC(=N)N)NC(=O)[C@H](Cc1ccc(O)cc1)NC(=O)[C@H](CO)NC(=O)[C@H](CC(N)=O)NC(=O)[C@@H](NC(=O)[C@H](Cc1ccccc1)NC(=O)[C@@H](NC(=O)[C@H](C)NC(=O)[C@H](CC(=O)O)NC(=O)[C@@H](C)NC(=O)[C@H](Cc1ccc(O)cc1)NC)[C@@H](C)CC)[C@@H](C)O)C(C)C)[C@@H](C)CC)C(=O)N[C@@H](CC(=O)O)C(=O)NCCCCNC(=N)N [Peptide P-20367, [N—Me-Tyr^1, D-Ala^2, Orn^12, Abu^15, Orn^21, Nle^27, Asp^28, Agm^29]hGHRH(1-29)NH2] (H-[NMeY][dA]DAIFTNSYR[Orn]VL[Abu]QLSAR[Orn]LLQDI[Nle]D-Agmatine) | – | 2.56 | 2.51 | 7.01 | – | 1.12 | 2.01 | – | – | = | = | ↑ | ↑ | ↑ | ↑ | – | improved receptor binding affinity
